From patent publication US5262411A, “Isocephem derivatives, and antimicrobial composition containing the derivatives” (Otsuka Pharmaceutical Co., Ltd., priority 1989, dated 1993)
Values after ≈ are worked out from the molar mass of the structure shown. Like-named read-outs stand apart in the source and are kept apart here.

How the values were obtained:
Format in all cases: cell-based
[1] = tested on: S. aureaus FDA-209P; assay: MIC against S. aureaus FDA-209P by the plate diluted method; settings: Staphylococcus aureus, FDA209P
Experimental: (§1) In order to investigate the in vitro activity of the test compounds against various bacteria, the minimal inhibitory concentration (MIC) values were determined by the plate diluted method (See CHEMOTHERAPY, 22, 1126-1128, 1974.)
(§2) Each strain was adjusted to 1×10^6 cells/ml (O.D. 600 mμ, 0.07 to 0.16).

[2] = tested on: E. coli NIHJ JC-2; assay: MIC against E. coli NIHJ JC-2 by the plate diluted method; settings: Escherichia coli, NIHJJC2; E. coli NIHJ JC-2; 1×10^6 cells/ml; read-out: MIC
Experimental: as §1, §2

[3] = tested on: K. pneumoniae NCTC-9632; assay: MIC against K. pneumoniae NCTC-9632 by the plate diluted method; settings: Klebsiella pneumoniae, NCTC9632; K. pneumoniae NCTC-9632; 1×10^6 cells/ml; read-out: MIC
Experimental: as §1, §2

[4] = tested on: M. moganii IIDkono; assay: MIC against M. moganii IIDkono by the plate diluted method
Experimental: as §1, §2

[5] = tested on: S. marcescens IFO 12648; assay: MIC against S. marcescens IFO 12648 by the plate diluted method; settings: Serratia marcescens, IFO12648; S. marcescens IFO 12648; 1×10^6 cells/ml; read-out: MIC
Experimental: as §1, §2

[6] = tested on: A. calcoaceticus Ac-54; assay: MIC against A. calcoaceticus Ac-54 by the plate diluted method; settings: Acinetobacter calcoaceticus, AC54; A. calcoaceticus Ac-54; 1×10^6 cells/ml; read-out: MIC
Experimental: as §1, §2

[7] = tested on: P. aeruginosa ATCC-10145; assay: MIC against P. aeruginosa ATCC-10145 by the plate diluted method; settings: Pseudomonas aeruginosa, ATCC10145; P. aeruginosa ATCC-10145; 1×10^6 cells/ml; read-out: MIC
Experimental: as §1, §2

[8] = tested on: P. aeruginosa E-2; assay: MIC against P. aeruginosa E-2 by the plate diluted method; settings: Pseudomonas aeruginosa, E2; P. aeruginosa E-2; 1×10^6 cells/ml; read-out: MIC
Experimental: as §1, §2

[9] = tested on: E. coli No. 29; assay: MIC against E. coli No. 29 by the plate diluted method; settings: Escherichia coli, 1×10^6 cells/ml
Experimental: as §1, §2

[10] = S. aureaus FDA-209P, 1×10^6 cells/ml, read-out: MIC
[11] = M. moganii IIDkono, 1×10^6 cells/ml, read-out: MIC

| SMILES | MIC [1, 10] [µg/mL] | MIC [3] [µg/mL] | MIC [5] [µg/mL] | MIC [6] [µg/mL] | MIC [7] [µg/mL] | MIC [8] [µg/mL] | MIC [4, 11] [µg/mL] | MIC [9] [µg/mL] | MIC [2] [µg/mL] | MIC [4] [µg/mL] | MIC [1] [µg/mL] |
| --- | --- | --- | --- | --- | --- | --- | --- | --- | --- | --- | --- |
| Nc1nc(/C(=N/OCc2cc(=O)c(O)cn2O)C(=O)N[C@@H]2C(=O)N3C(C(=O)O)=C(CSc4snc(O)c4C(=O)O)CS[C@H]23)ns1 [No. 23, (6R,7R)-7-[(Z)-2-(5-amino-1,2,4-thiadiazol-3-yl)-2-(1,5-dihydroxy-4-pyridone-2-ylmethoxyimino)acetamide]-3-(4-carboxy-3-hydroxyiso-thiazol-5-ylthiomethyl)-3-cephem-4-carboxylic acid] | 100 (≈ 143 µM) | 0.024 (≈ 0.0343 µM) | 0.024 (≈ 0.0343 µM) | 0.1 (≈ 0.143 µM) | 0.1 (≈ 0.143 µM) | 0.1 (≈ 0.143 µM) | – | – | 0.1 (≈ 0.143 µM) | 0.05 (≈ 0.0716 µM) | – |
| Nc1nc(/C(=N/OCc2cc(=O)c(O)cn2O)C(=O)N[C@@H]2C(=O)N3C(C(=O)O)=C(CSc4nnnn4CC(=O)O)CS[C@H]23)ns1 [No. 21, (6R,7R)-7-[(Z)-2-(5-amino-1,2,4-thiadiazol-3-yl)-2-(1,5-dihydroxy-4-pyridone-2-ylmethoxyimino)acetamide]-3-(1-carboxymethyl-1H-tetrazole-5-ylthiomethyl)-3-cephem-4-carboxylic acid] | 100 (≈ 147 µM) | 0.012 (≈ 0.0176 µM) | 0.012 (≈ 0.0176 µM) | 0.05 (≈ 0.0734 µM) | 0.1 (≈ 0.147 µM) | 0.1 (≈ 0.147 µM) | 0.024 (≈ 0.0352 µM) | – | 0.1 (≈ 0.147 µM) | – | – |
| Nc1nc(/C(=N/OCc2cc(=O)c(O)cn2O)C(=O)N[C@@H]2C(=O)N3C(C(=O)O)=C(CSc4snc(O)c4C(=O)O)SC[C@H]23)ns1 [No. 22, (6S,7S)-7-[(Z)-2-(5-amino-1,2,4-thiadiazol-3-yl)-2-(1,5-dihydroxy-4-pyridone-2-ylmethoxyimino)acetamide]-3-(4-carboxy-3-hydroxyisothiazol-5-ylthiomethyl) isocephem-4-carboxylic acid] | 100 (≈ 143 µM) | 0.012 (≈ 0.0172 µM) | 0.012 (≈ 0.0172 µM) | 0.1 (≈ 0.143 µM) | 0.1 (≈ 0.143 µM) | 0.2 (≈ 0.286 µM) | – | – | 0.05 (≈ 0.0716 µM) | 0.05 (≈ 0.0716 µM) | – |
| CC(C)(O/N=C(\C(=O)N[C@@H]1C(=O)N2C(C(=O)[O-])=C(CSc3cc[n+](CC(=O)NNC(=O)c4ccc(O)c(O)c4)cc3)CS[C@H]12)c1csc(N)n1)C(=O)O [No. 15, (6R,7R)-7-[(Z)-2-(2-aminothiazol-4-yl)-2-(1-carboxy-1-methylethoxy)imino]acetamide-3-[1-(N-3,4-dihydroxybenzamide)carbamoylmethyl-4-pyridinio]thiomethyl-3-cephem-4-carboxylate] | – | 0.012 (≈ 0.0153 µM) | 0.05 (≈ 0.0635 µM) | 0.1 (≈ 0.127 µM) | 0.05 (≈ 0.0635 µM) | 0.05 (≈ 0.0635 µM) | – | 0.012 (≈ 0.0153 µM) | – | 0.05 (≈ 0.0635 µM) | 3.13 (≈ 3.98 µM) |

Now from value to compound, other results behind:

| MIC [1, 10] [µg/mL] | MIC [3] [µg/mL] | MIC [5] [µg/mL] | MIC [6] [µg/mL] | MIC [7] [µg/mL] | MIC [8] [µg/mL] | MIC [4, 11] [µg/mL] | MIC [9] [µg/mL] | SMILES | MIC [2] [µg/mL] | MIC [4] [µg/mL] | MIC [1] [µg/mL] |
| --- | --- | --- | --- | --- | --- | --- | --- | --- | --- | --- | --- |
| 100 (≈ 147 µM) | 0.012 (≈ 0.0176 µM) | 0.012 (≈ 0.0176 µM) | 0.05 (≈ 0.0734 µM) | 0.05 (≈ 0.0734 µM) | 0.05 (≈ 0.0734 µM) | 0.024 (≈ 0.0352 µM) | – | Nc1nc(/C(=N/OCc2cc(=O)c(O)cn2O)C(=O)N[C@@H]2C(=O)N3C(C(=O)O)=C(CSc4nnnn4CC(=O)O)SC[C@H]23)ns1 [No. 20, (6S,7S)-7-[(Z)-2-(5-amino-1,2,4-thiadiazol-3-yl)-2-(1,5-dihydroxy-4-pyridone-2-ylmethoxyimino)acetamide]-3-(1-carboxymethyl-1H-tetrazol-5-ylthiomethyl)-isocephem-4-carboxylic acid] | 0.05 (≈ 0.0734 µM) | – | – |
| 12.5 (≈ 19.6 µM) | ≤ 0.006 | 0.05 (≈ 0.0783 µM) | 0.1 (≈ 0.157 µM) | 0.05 (≈ 0.0783 µM) | 0.05 (≈ 0.0783 µM) | 0.1 (≈ 0.157 µM) | 0.024 (≈ 0.0376 µM) | Nc1nc(/C(=N/OCc2cc(=O)c(O)cn2O)C(=O)N[C@@H]2C(=O)N3C(C(=O)O)=C(CSc4nncs4)SC[C@H]23)cs1 [No. 2, (6S,7S)-7-[(Z)-2-(2-Aminothiazol-4-yl)-2-(1,5-dihydroxy-4-pyridone-2-ylmethoxyimino)acetamide]-3-(1,3,4-thiadiazol-5-yl)thiomethyl-isocephem-4-carboxylic acid] | – | – | – |
| 12.5 (≈ 18.1 µM) | ≤ 0.006 | 0.05 (≈ 0.0725 µM) | 0.39 (≈ 0.565 µM) | 0.1 (≈ 0.145 µM) | 0.2 (≈ 0.29 µM) | 0.1 (≈ 0.145 µM) | 0.012 (≈ 0.0174 µM) | Nc1nc(/C(=N/OCc2cc(=O)c(O)cn2O)C(=O)N[C@@H]2C(=O)N3C(C(=O)[O-])=C(CSc4cc[n+](CC(=O)O)cc4)SC[C@H]23)cs1 [No. 12, (6S,7S)-7-[(Z)-2-(2-aminothiazol-4-yl)-2-(1,5-dihydroxy-4-pyridone-2-ylmethoxyimino)acetamide]-3-[(1-carboxymethyl-4-pyridinio)thiomethyl]isocephem-4-carboxylate] | – | – | – |
